Columns and labels:
Assay in all cases: microbe, parasite or virus in culture
[1] = test system: Human immunodeficiency virus 1; format: functional, organism-based, MT4
Description: Inhibitory activity against 103N strain and 181C strain of HIV-I in MT-4 cells

[2] = test system: Human immunodeficiency virus 1; conditions: Human immunodeficiency virus 1, MT4
Description: Inhibitory activity against 100I strain and 103N strain of HIV-I in MT-4 cells

[3] = test system: Human immunodeficiency virus 1; conditions: Human immunodeficiency virus 1, MT4; remark: listed apart in the source
Description: Inhibitory activity against 100I strain of HIV-I in MT-4 cells

[4] = test system: Human immunodeficiency virus 1; conditions: Human immunodeficiency virus 1, MT4; remark: listed apart in the source
Description: Inhibitory activity against 103N strain of HIV-I in MT-4 cells

[5] = test system: Human immunodeficiency virus 1; conditions: Human immunodeficiency virus 1, MT4; remark: listed apart in the source
Description: Inhibitory activity against 181C strain of HIV-I in MT-4 cells

[6] = test system: Human immunodeficiency virus 1; conditions: Human immunodeficiency virus 1, MT4; remark: listed apart in the source
Description: Inhibitory activity against 188L strain of HIV-I in MT-4 cells

[7] = test system: Human immunodeficiency virus 1; conditions: Human immunodeficiency virus 1, MT4; remark: listed apart in the source
Description: Inhibitory activity against LAI strain of HIV-I in MT-4 cells

[8] = Human immunodeficiency virus 1, MT4

Row | SMILES | IC50 [1, 8] [µM] | IC50 [2] [µM] | IC50 [3] [µM] | IC50 [4] [µM] | IC50 [5] [µM] | IC50 [6] [µM] | IC50 [7] [µM] | IC50 ([1]; mt4) [µM]
1 | Cc1cc(C#N)cc(C)c1Oc1nc(Nc2ccc(C#N)cc2)ncc1Cl | 0.038 | 0.138 | 0.0075 | 0.0026 | 0.034 | 0.0048 | 0.0014 | –
2 | Cc1cc(Cl)cc(C)c1Nc1ccnc(Nc2ccc(C#N)cc2)n1 | 0.401 | > 10 | 0.327 | 0.013 | 0.019 | 0.115 | 0.0021 | –
3 | Cc1cc(C#N)cc(C)c1Nc1nc(Nc2ccc(C#N)cc2)ncc1C#N | 0.181 | 0.312 | 0.091 | 0.0026 | 0.076 | 0.0086 | 0.0005 | –
4 | Cc1cc(Br)cc(C)c1Nc1ccnc(Nc2ccc(C#N)cc2)n1 | 0.15 | > 100 | 0.076 | 0.012 | 0.017 | 0.069 | 0.0023 | –
5 | N#Cc1ccc(Nc2nccc(Nc3c(Cl)cc(Cl)cc3Cl)n2)cc1 | – | > 10 | 0.014 | 0.003 | 0.01 | 0.099 | 0.0007 | –
6 | Cc1cc(Br)cc(C)c1Sc1ccnc(Nc2ccc(C#N)cc2)n1 | 0.354 | 3.89 | 0.174 | 0.039 | 0.068 | 0.044 | 0.0057 | –
7 | CC(C)Nc1cccnc1N1CCN(C(=O)c2cc3cc(NS(C)(=O)=O)ccc3[nH]2)CC1 [DELAVIRDINE] | 20 | – | 2.51 | 2.51 | 2 | 1.26 | 0.063 | –
8 | CC(=O)Nc1cnc(Nc2ccc(C#N)cc2)nc1Oc1c(C)cc(C#N)cc1C | 0.03 | 0.205 | – | 0.0033 | – | – | – | –
9 | Cc1cnc(Nc2ccc(C#N)cc2)nc1Nc1c(C)cc(C#N)cc1C | 0.162 | > 10 | 0.016 | 0.0017 | 0.012 | 0.016 | 0.0008 | –
10 | C=Cc1cnc(Nc2ccc(C#N)cc2)nc1Nc1c(C)cc(C)cc1C | 0.106 | > 100 | 0.035 | 0.0058 | 0.036 | 0.029 | 0.0025 | –
11 | Cc1cc(C)c(Nc2nc(Nc3ccc(C#N)cc3)ncc2C#N)c(C)c1 | – | – | 0.063 | 0.0034 | 0.04 | 0.077 | 0.001 | –
12 | Cc1cc(C#N)cc(C)c1Oc1ccnc(Nc2ccc(C#N)cc2)n1 | – | 0.798 | 0.073 | 0.0027 | 0.037 | 0.019 | 0.0011 | 0.094
13 | C#Cc1cc(C)c(Oc2ccnc(Nc3ccc(C#N)cc3)n2)c(C)c1 | 0.793 | 4.19 | 0.185 | 0.012 | 0.171 | 0.05 | 0.0055 | –
14 | Cc1cc(C)c(Nc2nc(Nc3ccc(C#N)cc3)ncc2-c2ccccc2)c(C)c1 | – | – | – | – | – | – | 0.024 | –
15 | Cc1cc(C#N)cc(C)c1Nc1nc(Nc2ccc(C#N)cc2)ncc1Cl | 0.069 | 0.144 | 0.0052 | 0.0009 | 0.014 | 0.0047 | 0.0012 | –
16 | Cc1cc(Br)c(Nc2ccnc(Nc3ccc(C#N)cc3)n2)c(Br)c1 | 0.133 | > 100 | 0.003 | 0.003 | 0.0034 | > 100 | 0.0007 | –
17 | N#Cc1ccc(Nc2nccc(Nc3c(F)cc(Br)cc3Br)n2)cc1 | – | > 10 | 0.015 | 0.0057 | 0.015 | 0.064 | 0.0006 | –
18 | Cc1cc(C)c(Nc2nc(Nc3ccc(C#N)cc3)ncc2Cl)c(C)c1 | 0.138 | 0.319 | 0.017 | 0.006 | 0.032 | 0.034 | 0.0027 | –
19 | Cc1cc(Br)cc(C)c1Oc1ccnc(Nc2ccc(C#N)cc2)n1 | 0.217 | 2.37 | 0.113 | 0.0047 | 0.059 | 0.079 | 0.0029 | –

Row | SMILES | IC50 [1, 8] [µM] | IC50 [2] [µM] | IC50 [3] [µM] | IC50 [4] [µM] | IC50 [5] [µM] | IC50 [6] [µM] | IC50 [7] [µM] | IC50 ([1]; mt4) [µM]
20 | Cc1cc(C)c(Nc2nc(Nc3ccc(C#N)cc3)ncc2C)c(C)c1 | 0.053 | > 100 | 0.012 | 0.0026 | 0.012 | 0.018 | 0.0017 | –
21 | Cc1cc(C#N)cc(C)c1Oc1nc(Nc2ccc(C#N)cc2)ncc1Br | 0.025 | 0.049 | 0.0066 | 0.0014 | 0.022 | 0.0059 | 0.0014 | –
22 | Cc1cc(C#N)cc(C)c1Oc1nc(Nc2ccc(C#N)cc2)ncc1[N+](=O)[O-] | 0.194 | > 10 | 0.121 | 0.01 | 0.304 | 0.782 | 0.018 | –
23 | Cc1cc(C#N)cc(C)c1Oc1nc(Nc2ccc(C#N)cc2)nc(N)c1Br [ETRAVIRINE] | 0.0043 | 0.019 | 0.0033 | 0.0012 | 0.007 | 0.0046 | 0.0014 | –
24 | N#Cc1ccc(Nc2nc(N)nc(Cc3c(Cl)cccc3Cl)n2)cc1 | – | – | – | – | – | – | 0.006 | –
25 | Cc1cc(C#N)cc(C)c1Oc1nc(Nc2ccc(C#N)cc2)ncc1N | 0.014 | 0.282 | 0.016 | 0.0013 | 0.0093 | 0.0057 | 0.001 | –
26 | N#Cc1ccc(Nc2cc(N)nc(Cc3c(Cl)cccc3Cl)n2)cc1 | – | – | > 100 | > 100 | > 100 | > 100 | 0.452 | –
27 | Cc1cc(C)c(Nc2ccnc(Nc3ccc(C#N)cc3)n2)c(C)c1 [DAPIVIRINE] | 0.044 | > 10 | 0.018 | 0.0043 | 0.0075 | 0.048 | 0.001 | –
28 | Cc1cc(C#N)cc(C)c1Nc1ccnc(Nc2ccc(C#N)cc2)n1 | – | 1.09 | 0.034 | 0.0019 | 0.0071 | 0.0078 | 0.0004 | 0.037
29 | Cc1cccc(C)c1Nc1ccnc(Nc2ccc(C#N)cc2)n1 | – | > 10 | 0.212 | 0.028 | 0.061 | 0.26 | 0.0007 | –
30 | Cc1cc(C#N)cc(C)c1Nc1nc(Nc2ccc(C#N)cc2)ncc1Br | – | 0.037 | 0.007 | 0.0004 | 0.0096 | 0.0033 | 0.0004 | 0.032
31 | Cc1cc(C)c(Nc2nc(Nc3ccc(C#N)cc3)ncc2Br)c(C)c1 | 0.283 | 0.348 | 0.011 | 0.0073 | 0.036 | 0.027 | 0.0055 | –
32 | Cc1cc(C)c(Sc2ccnc(Nc3ccc(C#N)cc3)n2)c(C)c1 | – | 4.79 | 0.054 | 0.012 | 0.025 | 0.02 | 0.0036 | –
33 | N#Cc1ccc(Nc2cc(Cc3c(Cl)cccc3Cl)nc(N)n2)cc1 | – | – | 96.6 | 33.3 | > 100 | > 100 | 0.01 | –
34 | N#Cc1ccc(Nc2nc(N)cc(Cc3c(Cl)cccc3Cl)n2)cc1 | – | – | 0.299 | 0.012 | 0.175 | 0.071 | 0.001 | –
35 | Cc1cc(Cl)cc(Cl)c1Nc1ccnc(Nc2ccc(C#N)cc2)n1 | – | > 10 | 0.06 | 0.013 | 0.018 | 0.086 | 0.001 | –
36 | C#Cc1cnc(Nc2ccc(C#N)cc2)nc1Nc1c(C)cc(C)cc1C | 0.042 | 0.071 | – | 0.0062 | – | – | – | –
37 | Cc1cc(C)c(Oc2ccnc(Nc3ccc(C#N)cc3)n2)c(C)c1 | 1.1 | 8.2 | 0.022 | 0.003 | 0.038 | 0.055 | 0.0029 | –

From ChEMBL document CHEMBL1133923, “Evolution of anti-HIV drug candidates. Part 3: Diarylpyrimidine (DAPY) analogues” (Bioorg Med Chem Lett, 2001)
